Patent EP0799188B1, “AMIDES OF MONO AND DICARBOXYLIC ACIDS WITH GLYCOSAMINES, SELECTIVELY ACTIVE ON THE CANNABINOID PERIPHERAL RECEPTOR” (LIFEGROUP S.p.A., priority 1994, dated 1996)
Read-outs that look alike come from different tables or passages of the source.

What was measured:
[1] = system: RBL-2H3 cells; assay: 3H-serotonin release induced by ADNP/DNP.HSA immunogenic stimulation; format: cell-based, rat; conditions: for inhibition at 100 µM / inhibition at 20 µM / EC50 / inhibition at 5 µM / inhibition at 12.5 µM / inhibition at 25 µM: Rattus norvegicus; for inhibition at 100 µM: RBL-2H3, DMSO 1%; for inhibition at 20 µM: RBL-2H3, DMSO 0.2%; for inhibition at 5 µM: RBL-2H3, read-out: 3H-serotonin net release inhibition (%), 5µM; for effect on serotonin release (RBL cells immunogenic activation): statement in words on Table 3; for inhibition at 12.5 µM: RBL-2H3, 12.5µM, -WIN
[2] = solubility in organic solvents; format: physicochemical; conditions: organic solvent or mixture, read-out: solubility in org. sol.
[3] = water solubility
[4] = biological target: T1, CB2 receptor (Rattus norvegicus, UniProt Q9QZN9); assay: 3H-WIN 55,212-2 binding displacement on RBL-2H3 cell membranes
T1 construct: 30 µg membrane proteins prepared in item a); endogenous in cells; host or cells: RBL-2H3 cells (plasma membrane preparation)
T1 sequence (Q9QZN9 1-360): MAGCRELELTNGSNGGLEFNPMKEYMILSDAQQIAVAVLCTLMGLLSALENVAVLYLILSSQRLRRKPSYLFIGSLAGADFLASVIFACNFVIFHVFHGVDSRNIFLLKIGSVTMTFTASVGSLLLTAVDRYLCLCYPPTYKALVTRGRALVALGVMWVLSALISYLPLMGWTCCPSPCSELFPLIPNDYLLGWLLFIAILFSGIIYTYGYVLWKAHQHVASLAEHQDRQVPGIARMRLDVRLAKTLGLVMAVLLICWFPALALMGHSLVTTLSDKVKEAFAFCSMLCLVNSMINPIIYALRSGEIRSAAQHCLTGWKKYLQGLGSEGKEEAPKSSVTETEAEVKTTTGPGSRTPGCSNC

[5] = system: cerebellar granule cell culture; assay: neuroprotective effect against glutamate-induced cell death (MTT); format: cell-based, mouse; conditions: Mus musculus; glutamate 500 µM for 5 minutes; compound added for 10 minutes, 15 minutes after removing glutamate; MTT after 24 hours; means ± SEM; read-out: EC50
[6] = RBL-2H3, concentration inhibiting by 50% the net release of 3H serotonin, 0.2% DMSO, 15 minutes release period, means ± SEM, read-out: EC50
[7] = RBL-2H3, inhibition of 3H-serotonin release, +anandamide (12.5 µM), read-out: ED50 (the source's name)
[8] = RBL-2H3, inhibition of 3H-serotonin release, -anandamide, read-out: ED50 (the source's name)
[9] = read-out: 3H-serotonin net release inhibition (%)

## O=C(O)CNC(=O)/C=C/CCCCCCCCC(=O)NCC(=O)O [Example 13, N,N'-trans-2-dodecendioyl-diglycine]
[1]; 100µM
  inhibition at 100 µM: 54%
[2]; in DMSO
  solubility: > 10000 µg/mL
[3]
  water solubility: slightly soluble
[3]; water
  solubility: > 10000 µg/mL

## CCCCCCCCCCCCCCCC(=O)N[C@H]1C(O)O[C@H](CO)[C@@H](O)[C@@H]1O (stereo partly drawn) [Example 14, N-palmitoyl-D-glucosamine]
[1]
  inhibition at 20 µM: 76%
[1]; 100µM
  inhibition at 100 µM: 91%
[1]; [6]
  EC50: 1.28 ± 0.38 µM
[1]; [7]
  EC50: 3.3 µM
[1]; [8]
  EC50: 0.51 µM
[2]; in DMSO
  solubility: > 1000 µg/mL
[3]
  water solubility: slightly soluble

## CCCCCCCCCCCC(=O)N[C@H]1C(O)O[C@H](CO)[C@@H](O)[C@@H]1O (stereo partly drawn) [Example 15, N-lauroyl-D-glucosamine]
[1]
  inhibition at 20 µM: 67%
[1]; 100µM
  inhibition at 100 µM: 86%
[1]; [6]
  EC50: 12 µM
[2]; in DMSO
  solubility: > 5000 µg/mL
[3]
  water solubility: slightly soluble

## CCCCCCCC/C=C\CCCCCCCC(=O)N[C@H]1C(O)O[C@H](CO)[C@@H](O)[C@@H]1O (stereo partly drawn) [Example 16, N-oleoyl-D-glucosamine]
[1]
  inhibition at 20 µM: 92%
[1]; 100µM
  inhibition at 100 µM: 86%
[1]; [6]
  EC50: 2.4 ± 0.5 µM
[1]; [7]
  EC50: 4.2 µM
[1]; [8]
  EC50: 2.9 µM
[2]; in DMSO
  solubility: > 5000 µg/mL
[3]
  water solubility: slightly soluble

## CCCCCCCCCCCC(=O)N1CC(O)C[C@H]1C(=O)O (stereo partly drawn) [Example 17, N-lauroyl-4-hydroxy-L-proline]
[2]; in DMSO
  solubility: > 10000 µg/mL
[2]; in ethanol
  solubility: > 10000 µg/mL
[3]
  water solubility: slightly soluble
[3]; phosphate buffer, pH 7.4, aqueous buffer
  solubility: > 10000 µg/mL

## CCCCCCCCCCCCCCCC(=O)NCCO [N-(2-hydroxyethyl)-hexadecanamide, reference compound]
[1]; 100µM, 1% DMSO and 1% ethanol
  3H-serotonin net release (%): 0%
[1]; RBL-2H3, inhibition of serotonin release, 1% DMSO and 1% ethanol, read-out: ED50 (µm)
  EC50: 2.6 µM

## CCCCC/C=C\C/C=C\CCCCCCCC(=O)NCCO [N-(2-hydroxyethyl)-linoleylamide, reference compound]
[1]; 100µM, 0.1% DMSO and 0.1% ethanol
  3H-serotonin net release (%): 100%

## CCCCCCC(C)(C)c1cc(O)c2c(c1)OC(C)(C)C1CCC(=O)CC21 (stereo not drawn) [Nabilone, 3-(1,1-dimethylheptyl)-6,6a,7,8,10,10a-hexahydro-1-hydroxy-6,6-dimethyl-9H-dibenzo-[b,d]-pyran-9-one, reference compound]
[1]; 10µM, 0.1% DMSO and 0.1% ethanol
  3H-serotonin net release (%): 0%
[1]; + anandamide (12.5 µM)
  inhibition at 5 µM: 50%
[1]; -anandamide
  inhibition at 5 µM: 90%
[1]; RBL-2H3, read-out: ED50 (µM), inhibition of 3H-serotonin release, +anandamide (12.5 µM)
  EC50: 5 µM
[1]; RBL-2H3, read-out: ED50 (µM), inhibition of 3H-serotonin release, -anandamide
  EC50: 2.8 µM
[1]; RBL-2H3, read-out: ED50 (µm), inhibition of serotonin release, 0.1% DMSO and 0.1% ethanol
  EC50: 2.8 µM
[1]
  effect on serotonin release (RBL cells immunogenic activation): able to inhibit, in a concentration-dependent way
[4]; IC50 (nM), RBL-2H3 cell membranes, 1% DMSO, means ± SEM
  IC50: 2.6 ± 1.4 nM
[4]; competitor 10 µM, amides in 0.1% DMSO, Anandamide and Nabilone in 0.1% ethanol
  Displacement (%): 100%
[5]
  EC50: 3.9 ± 1.1 µM

## CCCCC/C=C\C/C=C\C/C=C\C/C=C\CCCC(=O)O [arachidonic acid, reference compound]
[1]; [9]
  inhibition at 12.5 µM: 4%

## NCCO [ethanolamine, reference compound]
[1]; [9]
  inhibition at 12.5 µM: 6%

## CCCCCc1cc(O)c2c(c1)OC(C)(C)[C@@H]1CCC(C)=C[C@@H]21 [Δ9-THC, Δ9-tetrahydrocannabinol, reference compound]
[1]; 25µM, 0.1% DMSO and 0.1% ethanol
  3H-serotonin net release (%): 27%
[1]; RBL-2H3, read-out: ED50 (µm)
  EC50: 5 µM
[1]; RBL-2H3, 25µM, -anandamide, read-out: 3H-serotonin net release inhibition (%)
  inhibition at 25 µM: 73%
[1]; RBL-2H3, read-out: ED50 (the source's name)
  EC50: 5 µM
[1]
  effect on serotonin release (RBL cells immunogenic activation): able to inhibit, in a concentration-dependent way

## CCCCCc1cc(O)c2c(c1)OC(C)(C)C1CC=C(C)CC21 (stereo not drawn) [Δ 8-THC, Δ8-tetrahydrocannabinol, reference compound]
[1]; RBL-2H3, read-out: 3H-serotonin net release inhibition (%)
  inhibition at 25 µM: 100%
[1]; RBL-2H3, read-out: ED50 (µM)
  EC50: 5 µM
[1]; RBL-2H3, read-out: ED50 (µm)
  EC50: 5 µM
[1]
  effect on serotonin release (RBL cells immunogenic activation): able to inhibit, in a concentration-dependent way
